Measured values reported in patent US20240376099A1, “COMPOUNDS AND COMPOSITIONS AS INHIBITORS OF ENDOSOMAL TOLL-LIKE RECEPTORS” (Novartis AG, priority 2016, published 2024).

Biological target: T1, TLR7 (Homo sapiens, UniProt Q9NYK1)
T1 construct: Fresh blood was collected from normal human donors; endogenous in cells; host or cells: human PBMCs from fresh donor blood
T1 sequence (Q9NYK1 27-1049): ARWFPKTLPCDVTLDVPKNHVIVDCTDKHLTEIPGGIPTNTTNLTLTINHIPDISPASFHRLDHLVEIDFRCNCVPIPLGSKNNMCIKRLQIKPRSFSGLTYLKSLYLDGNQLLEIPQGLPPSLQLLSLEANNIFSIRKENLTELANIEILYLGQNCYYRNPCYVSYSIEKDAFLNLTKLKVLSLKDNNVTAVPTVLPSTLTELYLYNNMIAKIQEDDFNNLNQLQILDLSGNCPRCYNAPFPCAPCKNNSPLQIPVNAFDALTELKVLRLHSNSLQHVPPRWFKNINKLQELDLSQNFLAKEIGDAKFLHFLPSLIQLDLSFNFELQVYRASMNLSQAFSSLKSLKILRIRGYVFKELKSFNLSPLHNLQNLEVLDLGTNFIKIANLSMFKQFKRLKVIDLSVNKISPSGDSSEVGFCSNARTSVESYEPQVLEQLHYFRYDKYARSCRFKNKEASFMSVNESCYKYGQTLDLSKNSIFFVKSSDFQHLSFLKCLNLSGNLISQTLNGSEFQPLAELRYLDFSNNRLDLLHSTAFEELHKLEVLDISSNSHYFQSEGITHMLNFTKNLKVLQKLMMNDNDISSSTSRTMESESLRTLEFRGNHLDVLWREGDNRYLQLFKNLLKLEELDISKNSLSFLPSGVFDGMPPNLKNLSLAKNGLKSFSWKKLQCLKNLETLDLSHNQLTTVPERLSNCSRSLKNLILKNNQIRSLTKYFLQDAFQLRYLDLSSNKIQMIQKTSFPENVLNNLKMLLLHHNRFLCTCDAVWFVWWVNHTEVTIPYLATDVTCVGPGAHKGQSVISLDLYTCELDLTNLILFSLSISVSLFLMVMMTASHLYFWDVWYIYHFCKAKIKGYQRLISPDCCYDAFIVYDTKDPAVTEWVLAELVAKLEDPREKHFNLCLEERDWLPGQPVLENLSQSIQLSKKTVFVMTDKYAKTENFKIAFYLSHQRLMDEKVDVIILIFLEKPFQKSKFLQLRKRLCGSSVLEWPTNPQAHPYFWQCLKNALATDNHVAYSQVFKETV
Experiment: huPBMC TLR7 Antagonist IFNα Assay
Format: cell-based
Details: human PBMCs stimulated with ssRNA40 10 μg/mL (DOTAP), 14-16 hrs; IFNα2b AlphaLISA read-out
Protocol: Compounds were generally serially diluted (1/3) in DMSO and plated on sterile 384 well tissue culture plates and stored until ready for use. Each ten-point dilution was typically plated in triplicate in parallel rows.
Fresh blood was collected from normal human donors underwritten informed consent in heparinized syringes on the morning of the assay. The blood was diluted in RPMI-1640 medium and the white blood cells were separated from red blood cells by centrifugation (800 g 15′ 0 acceleration, 0 brake) on a Ficoll cushion. Peripheral blood mononuclear cells (PBMCs) were separated from platelets by a series of low-speed centrifugations (1000RPM 10′) in PBS+5% HI—FBS and 1 mM EDTA. Purified PBMCs were re-suspended in assay medium (RPMI-1640 w Glutamax (Invitrogen) supplemented with 5% HI—FBS, 10 mM HEPES, 50 uM β-mercaptoethanol, and 100 mG/L penicillin/streptomycin cocktail). Viable PBMCs were counted on a hemacytometer and kept on ice until ready for plating.
A 4× concentration (4 ug/ml or 40 ug/ml for TLR8 or TLR7 assays, respectively) of the TLR7/8 agonist ssRNA40 (IDT) was complexed with 10% DOTAP (Roche) in assay medium for 30 min prior to addition to the PBMC suspension (5 million cells/ml). After addition, the final concentration of ssRNA40 in the TLR7/8 stimulated PBMC suspension was 1 μg/ml for TLR8 assay, and 10 μg/mL for the TLR7 assay. The final DOTAP concentration was 2.5%. Diluted PBMCs (5 million cells/ml) were treated with 4×TLR9 agonist ODN2216 (Invivogen). Final concentration of ODN2216 in TLR9 stimulated PBMC suspension was 0.3 μM.
Agonist stimulated PBMCs were plated on the compound treated 384 well plates at 150,000 cells/well. Un-stimulated PBMCs were plated as controls on each plate. Plating volume was 40 μL per well. DMSO concentration in each well was 0.25%.
A separate plate, without compounds, with titrations of ssRNA40 and ODN2216 was included in every assay to measure agonist response of each donor's PBMC prep. Assay plates were placed in a tissue culture incubator (37° C., 5% CO2) for 14-16 hrs. After this incubation, the plates were centrifuged and stored at −20° C. until they were assayed.
IL-6 TR-FRET Assay for TLR8 activity: • 1) Cisbio Human IL-6 kit, 20,000 tests (62TNFPEC), and GNF High-Base TC 384 well plates (cat #789163G) were used; • 2) the Anti-TIL-6 Cryptate conjugate and the Anti-IL-6 XL665 conjugate were diluted 1:20 in Reconstitution Buffer; • 3) a 1:1 mixture of 3 μl/well Anti-IL-6 Cryptate conjugate and 3 μl/well Anti-IL-6 XL665 conjugate was prepared; • 4) 6 μl/well HTRF dilution mastermix was added to 6 μl of transferred supernatant samples in proxiplates; • 5) The plates were incubated for 3 hrs at rt in the dark; and • 6) the levels of IL-6 production was measured using an Envision plate reader (665 nm (emmission)/590 nm (excitation)) with HTRF settings and ratiometric read-out: (XL665 emission/Eu Cryptate emission)×10,000. IFNα2b AlphaLISA Assay for TLR7 or TLR9 activity After thawing the assay plates, 6 μL of supernatant samples were transferred to a low-volume AlphaPlate 384SW (Perkin-Elmer). The concentration of IFNα in supernatants was measured using the IFNα2b AlphaLISA Assay (Perkin-Elmer: AL297F). 3 μL of IFNα acceptor beads/biotinylated antibody solution was added first, using laboratory automation. After an hour incubation, […] of streptavidin […] bead solution was added. The plates containing this mixture were incubated in the dark for an hour and read on an appropriate plate reader at reading parameters set by the manufacturer. (Envision, EnSpire: Perkin-Elmer).

Row | IC50 | SMILES
1 | 54 nM | Cc1cc(N2CCc3c(c(C)nn3CC34CCC(N)(CC3)CC4)C2)c2ccncc2n1 [Compound No. 3, 4-((3-methyl-5-(2-methyl-1,7-naphthyridin-4-yl)-4,5,6,7-tetrahydro-1H-pyrazolo[4,3-c]pyridin-1-yl)methyl)bicyclo[2.2.2]octan-1-amine]
2 | 19 nM | Cc1cc(N2CCc3c(c(C)nn3CC34CCC(NC5COC5)(CC3)CC4)C2)c2cnn(C)c2n1 [Compound No. 6, N-(4-((5-(1,6-dimethyl-1H-pyrazolo[3,4-b]pyridin-4-yl)-3-methyl-4,5,6,7-tetrahydro-1H-pyrazolo[4,3-c]pyridin-1-yl)methyl)bicyclo[2.2.2]octan-1-yl)oxetan-3-amine]
3 | 15 nM | Cc1cc(N2CCc3c(c(C)nn3CC34CCC(NC(=O)[C@H]5COCCN5)(CC3)CC4)C2)c2cnn(C)c2n1 [Compound No. 9, (R)—N-(4-((5-(1,6-dimethyl-1H-pyrazolo[3,4-b]pyridin-4-yl)-3-methyl-4,5,6,7-tetrahydro-1H-pyrazolo[4,3-c]pyridin-1-yl)methyl)bicyclo[2.2.2]octan-1-yl)morpholine-3-carboxamide]
4 | 56 nM | Cc1nc(N2CCc3c(c(C)nn3CC34CCC(N5CC6(COC6)C5)(CC3)CC4)C2)c2c(n1)c(C)nn2C [Compound No. 10, 6-(4-((3-methyl-5-(1,3,5-trimethyl-1H-pyrazolo[4,3-d]pyrimidin-7-yl)-4,5,6,7-tetrahydro-1H-pyrazolo[4,3-c]pyridin-1-yl)methyl)bicyclo[2.2.2]octan-1-yl)-2-oxa-6-azaspiro[3.3]heptane]
5 | 644 nM | Cc1nc(N2CCc3c(c(C)nn3CC34CCC(N)(CC3)CC4)C2)c2c(n1)c(C)nn2C [Compound No. 26, 4-((3-methyl-5-(1,3,5-trimethyl-1H-pyrazolo[4,3-d]pyrimidin-7-yl)-4,5,6,7-tetrahydro-1H-pyrazolo[4,3-c]pyridin-1-yl)methyl)bicyclo[2.2.2]octan-1-amine]
6 | 16 nM | Cc1cc(N2CCc3c(c(C)nn3CC34CCC(N(C)C)(CC3)CC4)C2)c2cnn(C)c2n1 [Compound No. 43, 4-((5-(1,6-dimethyl-1H-pyrazolo[3,4-b]pyridin-4-yl)-3-methyl-4,5,6,7-tetrahydro-1H-pyrazolo[4,3-c]pyridin-1-yl)methyl)-N,N-dimethylbicyclo[2.2.2]octan-1-amine]
7 | 61 nM | Cc1cc(N2CCc3c(c(C)nn3CC34CCC(N5CCN(C)C(=O)C5)(CC3)CC4)C2)c2cnn(C)c2n1 [Compound No. 104, 4-(4-((5-(1,6-dimethyl-1H-pyrazolo[3,4-b]pyridin-4-yl)-3-methyl-4,5,6,7-tetrahydro-1H-pyrazolo[4,3-c]pyridin-1-yl)methyl)bicyclo[2.2.2]octan-1-yl)-1-methylpiperazin-2-one]
8 | 21 nM | Cc1cc(N2CCc3c(c(C)nn3CC34CCC(N5CCN(C)CC5=O)(CC3)CC4)C2)c2cnn(C)c2n1 [Compound No. 108, 1-(4-((5-(1,6-dimethyl-1H-pyrazolo[3,4-b]pyridin-4-yl)-3-methyl-4,5,6,7-tetrahydro-1H-pyrazolo[4,3-c]pyridin-1-yl)methyl)bicyclo[2.2.2]octan-1-yl)-4-methylpiperazin-2-one]
9 | 6 nM | Cc1cc(N2CCc3c(c(C)nn3CC34CCC(n5ccnc5)(CC3)CC4)C2)c2cnn(C)c2n1 [Compound No. 119, 1-((4-(1H-imidazol-1-yl)bicyclo[2.2.2]octan-1-yl)methyl)-5-(1,6-dimethyl-1H-pyrazolo[3,4-b]pyridin-4-yl)-3-methyl-4,5,6,7-tetrahydro-1H-pyrazolo[4,3-c]pyridine]
10 | 12 nM | Cc1cc(N2CCc3c(c(C)nn3CC34CCC(NC(=O)CN5CC(F)C5)(CC3)CC4)C2)c2cnn(C)c2n1 [Compound No. 133, N-(4-((5-(1,6-dimethyl-1H-pyrazolo[3,4-b]pyridin-4-yl)-3-methyl-4,5,6,7-tetrahydro-1H-pyrazolo[4,3-c]pyridin-1-yl)methyl)bicyclo[2.2.2]octan-1-yl)-2-(3-fluoroazetidin-1-yl)acetamide]
11 | 10 nM | Cc1cc(N2CCc3c(c(C)nn3CC34CCC(NC(=O)CO)(CC3)CC4)C2)c2cnn(C)c2n1 [Compound No. 135, N-(4-((5-(1,6-dimethyl-1H-pyrazolo[3,4-b]pyridin-4-yl)-3-methyl-4,5,6,7-tetrahydro-1H-pyrazolo[4,3-c]pyridin-1-yl)methyl)bicyclo[2.2.2]octan-1-yl)-2-hydroxyacetamide]
12 | 6 nM | Cc1cc(N2CCc3c(c(C)nn3CC34CCC(NC(=O)CN5CC(O)C5)(CC3)CC4)C2)c2cnn(C)c2n1 [Compound No. 136, N-(4-((5-(1,6-dimethyl-1H-pyrazolo[3,4-b]pyridin-4-yl)-3-methyl-4,5,6,7-tetrahydro-1H-pyrazolo[4,3-c]pyridin-1-yl)methyl)bicyclo[2.2.2]octan-1-yl)-2-(3-hydroxyazetidin-1-yl)acetamide]
13 | 27 nM | [2H]C([2H])([2H])n1ncc2c(N3CCc4c(c(C)nn4CC45CCC(N)(CC4)CC5)C3)cc(C)nc21 [Compound No. 140, 4-((3-methyl-5-(6-methyl-1-(methyl-d3)-1H-pyrazolo[3,4-b]pyridin-4-yl)-4,5,6,7-tetrahydro-1H-pyrazolo[4,3-c]pyridin-1-yl)methyl)bicyclo[2.2.2]octan-1-amine]
14 | 33 nM | Cc1cc(N2CCc3c(c(C)nn3CC34CCC(NC(=O)OC(C)(C)C)(CC3)CC4)C2)c2ccncc2n1 [Compound No. 147, tert-butyl (4-((3-methyl-5-(2-methyl-1,7-naphthyridin-4-yl)-4,5,6,7-tetrahydro-1H-pyrazolo[4,3-c]pyridin-1-yl)methyl)bicyclo[2.2.2]octan-1-yl)carbamate]

Row | SMILES | IC50
15 | Cc1cc(N2CCc3c(c(C)nn3CC34CCC(NC(=O)[C@@H]5COCCN5)(CC3)CC4)C2)c2cnn(C)c2n1 [Compound No. 8, (S)—N-(4-((5-(1,6-dimethyl-1H-pyrazolo[3,4-b]pyridin-4-yl)-3-methyl-4,5,6,7-tetrahydro-1H-pyrazolo[4,3-c]pyridin-1-yl)methyl)bicyclo[2.2.2]octan-1-yl)morpholine-3-carboxamide] | 4 nM
